According to patent US8114859B2, “2-methylene-(20S,25S)-19,27-dinor-(22E)-vitamin D analogs” (Wisconsin Alumni Research Foundation, priority 2006, dated 2012):
Read-outs that look alike come from different tables or passages of the source.

Tests used:
[1] = Intestinal calcium transport, everted gut sac method, in vitamin D-deficient rats; type: in vivo, rat; details: FIG. 5; for intestinal calcium transport: everted gut sac
Procedure: (§1) Male, weanling Sprague-Dawley rats were placed on Diet 11 (0.47% Ca) diet+AEK for one week followed by Diet 11 (0.02% Ca)+AEK for 3 weeks. The rats were then switched to a diet containing 0.47% Ca for one week followed by two weeks on a diet containing 0.02% Ca. Dose administration began during the last week on 0.02% calcium diet. Four consecutive ip doses were given approximately 24 hours apart. Twenty-four hours after the last dose, blood was collected from the severed neck and the concentration of serum calcium determined as a measure of bone calcium mobilization. The first 10 cm of the intestine was also collected for intestinal calcium transport analysis using the everted gut sac method.

HL-60 cells = assay: HL-60 differentiation (nitro blue tetrazolium reduction assay); type: cell-based, human; details: FIG. 2; for EC50: read-out: EC50, HL-60 cell differentiation
Procedure: The study drugs were dissolved in ethanol and the concentrations determined using UV spectrophotometry. Serial dilutions were prepared so that a range of drug concentrations could be tested without changing the final concentration of ethanol (≦0.2%) present in the cell cultures.
Human promyelocytic leukemia (HL60) cells were grown in RPMI-1640 medium containing 10% fetal bovine serum. The cells were incubated at 37° C. in the presence of 5% CO2.
HL60 cells were plated at 1.2×10^5 cells/ml. Eighteen hours after plating, cells in duplicate were treated with drug. Four days later, the cells were harvested and a nitro blue tetrazolium reduction assay was performed (Collins et al., 1979; J. Exp. Med. 149:969-974). The percentage of differentiated cells was determined by counting a total of 200 cells and recording the number that contained intracellular black-blue formazan deposits. Verification of differentiation to monocytic cells was determined by measuring phagocytic activity (data not shown).

[2] = target: T1, full-length recombinant rat vitamin D receptor (Rattus norvegicus, UniProt P13053); assay: Vitamin D receptor binding, competition with [3H]-1,25(OH)2D3; details: FIG. 1
T1 construct: Full-length recombinant rat receptor was expressed in E. coli BL21 (DE3) Codon Plus RIL cells; His tag (C); made in house; host or cells: E. coli BL21 (DE3) Codon Plus RIL
T1 sequence (P13053 1-423): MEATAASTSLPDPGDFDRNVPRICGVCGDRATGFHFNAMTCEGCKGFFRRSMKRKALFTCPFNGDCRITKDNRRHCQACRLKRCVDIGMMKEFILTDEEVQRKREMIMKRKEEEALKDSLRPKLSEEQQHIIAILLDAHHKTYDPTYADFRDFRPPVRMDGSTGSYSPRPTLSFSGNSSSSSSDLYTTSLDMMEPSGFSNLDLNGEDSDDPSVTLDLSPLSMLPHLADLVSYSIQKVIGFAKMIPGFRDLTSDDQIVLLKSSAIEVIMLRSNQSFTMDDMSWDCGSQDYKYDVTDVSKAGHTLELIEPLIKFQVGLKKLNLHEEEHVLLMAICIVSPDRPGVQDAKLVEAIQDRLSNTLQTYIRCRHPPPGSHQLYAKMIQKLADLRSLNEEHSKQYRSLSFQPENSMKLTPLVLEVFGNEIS
Procedure: Full-length recombinant rat receptor was expressed in E. coli BL21 (DE3) Codon Plus RIL cells and purified to homogeneity using two different column chromatography systems. The first system was a nickel affinity resin that utilizes the C-terminal histidine tag on this protein. The protein that was eluted from this resin was further purified using ion exchange chromatography (S-Sepharose Fast Flow). Aliquots of the purified protein were quick frozen in liquid nitrogen and stored at −80° C. until use. For use in binding assays, the protein was diluted in TEDK50 (50 mM Tris, 1.5 mM EDTA, pH7.4, 5 mM DTT, 150 mM KCl) with 0.1% Chaps detergent. The receptor protein and ligand concentration were optimized such that no more than 20% of the added radiolabeled ligand was bound to the receptor.
Radiolabeled and unlabeled ligands were added to 100 mcl of the diluted protein at a final ethanol concentration of ≦10%, mixed and incubated overnight on ice to reach binding equilibrium. The following day, 100 mcl of hydroxylapatite slurry (50%) was added to each tube and mixed at 10-minute intervals for 30 minutes. The hydroxylapaptite was collected by centrifugation and then washed three times with Tris-EDTA buffer (50 mM Tris, 1.5 mM EDTA, pH 7.4) containing 0.5% Titron X-100. […] Total binding was determined from the tubes containing only radiolabeled ligand.

[3] = system: 24-hydroxylase (24Ohase) gene promoter; assay: In vitro transcription assay, luciferase reporter in ROS 17/2.8 (bone) cells; type: cell-based; details: FIG. 3; for EC50: ROS 17/2.8 cells, read-out: EC50, transcriptional activity in bone cells
Procedure: Transcription activity was measured in ROS 17/2.8 (bone) cells that were stably transfected with a 24-hydroxylase (24Ohase) gene promoter upstream of a luciferase reporter gene (Arbour et al., 1998). Cells were given a range of doses. Sixteen hours after dosing the cells were harvested and luciferase activities were measured using a luminometer.
RLU=Relative Luciferase Units.

[4] = Bone calcium mobilization (serum calcium) in vitamin D-deficient rats; type: in vivo, rat; details: FIG. 4; for bone calcium mobilization: ip
Procedure: as §1

Row | EC50 (HL-60 cells; Homo sapiens, HL-60) [nM] | Ki ([2]; full-length recombinant rat VDR) [nM] | binding to the receptor compared to 1,25-(OH)2D3 ([2]; in words) | SMILES | intestinal calcium transport ([1]; 260 pmol/day) | intestinal calcium transport ([1]; 7020 pmol/day) | intestinal calcium transport activity compared to 1,25(OH)2D3 ([1]; in words, overall) | potency on HL-60 cell differentiation compared to 1,25(OH)2D3 (HL-60 cells; in words) | EC50 [3] [nM] | transcriptional activity in bone cells compared to 1α,25-dihydroxyvitamin D3 ([3]; in words) | bone calcium mobilization ([4]; 260 pmol/day for 4 consecutive days, rats on low calcium diet (0.02%)) | bone calcium mobilization ([4]; 7020 pmol/day, rats on low calcium diet (0.02%)) | bone calcium mobilization activity compared to 1,25(OH)2D3 ([4]; in words, overall) | EC50 (HL-60 cells) [nM] | serum calcium levels ([4]; all dosages, rats on low calcium diet (0.02%))
1 | 1 | 0.3 | bound equally to the receptor | C=C1[C@H](O)CC(=C/C=C2\CCC[C@]3(C)[C@@H]([C@@H](C)/C=C/C[C@H](C)O)CC[C@@H]23)C[C@H]1O [SS-22, 2-methylene-(20S,25S)-19,27-dinor-(22E)-1α,25-dihydroxyvitamin D3] | promotes intestinal calcium transport only slightly | significant intestinal calcium transport activity was recorded | very little activity | as potent as 1,25(OH)2D3 | 0.1 | about the same transcriptional activity | did not result in mobilization of bone calcium | without any substantial effect | very little bone calcium mobilization activity | – | –
2 | – | – | – | C=C1/C(=C\C=C2/CCC[C@]3(C)[C@@H]([C@H](C)CCCC(C)(C)O)CC[C@@H]23)C[C@@H](O)C[C@@H]1O [1,25(OH)2D3, 1α,25-dihydroxyvitamin D3, reference compound] | promotes a significant increase | – | – | – | 0.2 | – | – | – | – | 2 | increased serum calcium levels at all dosages
